Reference: patent publication US9656990B2, “Cathepsin cysteine protease inhibitors” (Merck Sharp & Dohme Corp., priority 2014, dated 2017)

Tests used:
human cathepsin K = human cathepsin K (UniProt P43236, Y175D/V274L, species not given); assay: Cathepsin K Assay; assay type: biochemical; settings: IP from dose response curve; Z-Leu-Arg-AMC substrate, pH 5.5; read-out: hrbCat K (IP (nM))
human cathepsin F = target: T1, human cathepsin F (Homo sapiens, UniProt Q9UBX1); assay: Cathepsin F Assay; assay type: biochemical; settings: IP from dose response curve; Z-Phe-Arg-AMC substrate, pH 5.5; read-out: hCat F (IP (nM))
T1 sequence (Q9UBX1 271-484): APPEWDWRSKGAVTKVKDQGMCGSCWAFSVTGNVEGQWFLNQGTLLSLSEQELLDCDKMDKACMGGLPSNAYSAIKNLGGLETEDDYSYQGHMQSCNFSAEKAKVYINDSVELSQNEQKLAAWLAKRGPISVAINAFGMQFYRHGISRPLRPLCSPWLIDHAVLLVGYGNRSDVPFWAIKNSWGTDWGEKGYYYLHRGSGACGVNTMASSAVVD
Method in brief: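 Human cathepsin F (10 nM) preincubated 15 min at room temperature with compounds in 50 mM MES pH 5.5, 2.5 mM EDTA, 2.5 mM DTT, 10% DMSO. Z-Phe-Arg-AMC (8 μM) added; AMC release read by fluorescence (Ex 360/Em 460 nm) over 20 min, inhibition fit to dose-response model.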

Row | SMILES | IC50 (human cathepsin K) [nM] | IC50 (human cathepsin F) [nM]
1 | CN=S1(=O)CCN(c2ccc(-c3cn(-c4ccc(F)cn4)nc3[C@@H]3CC[C@H](F)C[C@H]3C(=O)NC3(C#N)CC3)cc2)CC1 [Example 37, (1R,2R,5S)-N-(1-cyanocyclopropyl)-5-fluoro-2-(1-(5-fluoropyridin-2-yl)-4-(4-(1-(methylimino)-1-oxidothiomorpholino)phenyl)-1H-pyrazol-3-yl)cyclohexanecarboxamide] | 1.76 | 1660
2 | N#CC1(NC(=O)[C@@H]2CCCC[C@H]2c2nn(-c3cccc(F)c3)cc2-c2ccc(N3CCS(=O)(=O)CC3)cc2)CC1 [Example 86, (1R,2R)-N-(1-cyanocyclopropyl)-2-(4-(4-(1,1-dioxidothiomorpholino)phen-yl)-1-(3-fluorophenyl)-1H-pyrazol-3-yl)cyclohexanecarboxamide] | 0.33 | 268
3 | N#CC1(NC(=O)[C@@H]2C[C@@H](F)CC[C@H]2c2nn(-c3ccc(F)cn3)cc2-c2ccc(N3CCS(=N)(=O)CC3)cc2)CC1 [Example 59, (1R,2R,5S)-N-(1-cyanocyclopropyl)-5-fluoro-2-(1-(5-fluoropyridin-2-yl)-4-(4-(1-imino-1-oxidothiomorpholino)phenyl)-1H-pyrazol-3-yl)cyclohexanecarboxamide] | 1.29 | 2460
4 | CN=S1(=O)CCN(c2ccc(-c3cn(-c4ccc(F)cn4)nc3[C@@H]3CCCC[C@H]3C(=O)NC3(C#N)CC3)cc2)CC1 [Example 156, (1R,2R)-N-(1-cyanocyclopropyl)-2-(1-(5-fluoropyridin-2-yl)-4-(4-(1-(methylimino)-1-oxidothiomorpholino)phenyl)-1H-pyrazol-3-yl)cyclohexanecarboxamide] | 1.47 | 945
5 | COc1ccccc1-n1cc(-c2ccc(N3CCS(=O)(=O)CC3)cc2)c([C@@H]2CCCC[C@H]2C(=O)NC2(C#N)CC2)n1 [Example 92, (1R,2R)-N-(1-cyanocyclopropyl)-2-(4-(4-(1,1-dioxidothiomorpholino)phen-yl)-1-(2-methoxyphenyl)-1H-pyrazol-3-yl)cyclohexanecarboxamide] | 0.95 | 484
6 | N#CC1(NC(=O)[C@@H]2CCCC[C@H]2c2nn(-c3ccccc3Cl)cc2-c2ccc(N3CCS(=O)(=O)CC3)cc2)CC1 [Example 102, (1R,2R)-2-(1-(2-chlorophenyl)-4-(4-(1,1-dioxidothiomorpholino)phen-yl)-1H-pyrazol-3-yl)-N-(1-cyanocyclopropyl)cyclohex-anecarboxamide] | 2.9 | 643
7 | CN=S1(=O)CCN(c2ccc(-c3cn(-c4ccc(F)cn4)nc3[C@@H]3CC[C@H](F)C[C@H]3C(=O)NC3(C#N)CC3)cc2)CC1 [Example 159, (1R,2R,5S)-N-(1-cyanocyclopropyl)-5-fluoro-2-(1-(5-fluoropyridin-2-yl)-4-(4-(1-(methylimino)-1-oxidothiomorpholino)phenyl)-1H-pyrazol-3-yl)cyclohexanecarboxamide] | 3.22 | 1410
8 | N#CC1(NC(=O)[C@@H]2CC3CC3C[C@H]2c2nn(-c3ccc(F)cc3)cc2-c2ccc(N3CCS(=O)(=O)CC3)cc2)CC1 (single isomer, unassigned) [Example 3, (1S or 1R,3R,4R,6R or 6S)—N-(1-Cyanocyclopropyl)-4-(4-(4-(1,1-dioxidothiomorpholino)phenyl)-1-(4-fluorophenyl)-1H-pyrazol-3-yl)bicyclo[4.1.0]heptane-3-carboxamide] | 0.84 | 333
9 | Cc1c(-c2ccc(N3CCS(=O)(=O)CC3)cc2)c([C@@H]2CCCC[C@H]2C(=O)NC2(C#N)CC2)nn1-c1ncccc1F [Example 41, (1R,2R)-N-(1-cyanocyclopropyl)-2-(4-(4-(1,1-dioxidothiomorpholino)phen-yl)-1-(3-fluoropyridin-2-yl)-5-methyl-1H-pyrazol-3-yl)cyclohexanecarboxamide] | 8.5 | 5390
10 | N#CC1(NC(=O)[C@@H]2CC(F)(F)CC[C@H]2c2nn(-c3ccc(F)cn3)c(C(F)F)c2-c2ccc(N3CCS(=O)(=O)CC3)cc2)CC1 [Example 71, (1R,2R)-N-(1-cyanocyclopropyl)-2-(5-(difluoromethyl)-4-(4-(1,1-dioxidothiomorpholino)phen-yl)-1-(5-fluoropyridin-2-yl)-1H-pyrazol-3-yl)-5,5-difluorocyclohexanecarbox-amide] | 2.35 | 149
11 | Cc1cc(C#N)ccc1-n1cc(-c2ccc(N3CCS(=O)(=O)CC3)cc2)c([C@@H]2CCCC[C@H]2C(=O)NC2(C#N)CC2)n1 [Example 103, (1R,2R)-2-(1-(4-cyano-2-methylphenyl)-4-(4-(1,1-dioxidothiomorpholino)phen-yl)-1H-pyrazol-3-yl)-N-(1-cyanocyclopropyl)cyclohex-anecarboxamide] | 2.17 | 622
12 | N#CC1(F)CCN(c2ccc(-c3cn(-c4ccc(F)cc4)nc3[C@@H]3CCCC[C@H]3C(=O)NC3(C#N)CC3)cc2)CC1 [Example 115, (1R,2R)-2-(4-(4-(4-cyano-4-fluoropiperidin-1-yl)phenyl)-1-(4-fluorophenyl)-1H-pyrazol-3-yl)-N-(1-cyanocyclopropyl)cyclohex-anecarboxamide] | 6.62 | 804
13 | N#CC1(NC(=O)[C@@H]2CC(F)(F)CC[C@H]2c2nn3ccccc3c2-c2ccc(N3CCS(=O)(=O)CC3)cc2)CC1 [Example 28, (1R,2R)-N-(1-cyanocyclopropyl)-2-(3-(4-(1,1-dioxidothiomorpholino)phen-yl)pyrazolo[1,5-a]pyridin-2-yl)-5,5-difluorocyclohexanecarbox-amide] | 1.94 | 363
14 | N#CC1(NC(=O)C2CC(F)(F)CCC2c2nn(-c3ccc(F)cc3)cc2-c2ccc(N3CCS(=O)(=O)CC3)cc2)CC1 (racemic) [Example 80, (1R,2R and 1S,2S)-N-(1-cyanocyclopropyl)-2-(4-(4-(1,1-dioxidothiomorpholino)phen-yl)-1-(4-fluorophenyl)-1H-pyrazol-3-yl)-5,5-difluorocyclohexanecarbox-amide] | 1 | 35
15 | N#CC1(NC(=O)[C@@H]2CCCC[C@H]2c2nn(-c3cccnn3)cc2-c2ccc(N3CCS(=O)(=O)CC3)cc2)CC1 [Example 161, (1R,2R)-N-(1-cyanocyclopropyl)-2-(4-(4-(1,1-dioxidothiomorpholino)phen-yl)-1-(pyridazin-3-yl)-1H-pyrazol-3-yl)cyclohexanecarboxamide] | 1.61 | 751
16 | N#CC1(NC(=O)[C@@H]2CCCC[C@H]2c2nn(-c3c(F)cccc3F)cc2-c2ccc(N3CCS(=O)(=O)CC3)cc2)CC1 [Example 133, (1R,2R)-N-(1-cyanocyclopropyl)-2-(1-(2,6-difluorophenyl)-4-(4-(1,1-dioxidothiomorpholino)phen-yl)-1H-pyrazol-3-yl)cyclohexanecarboxamide] | 3.56 | 2340
17 | N#CC1(NC(=O)[C@@H]2CCCC[C@H]2c2nn(-c3cncc(Cl)c3)cc2-c2ccc(N3CCS(=O)(=O)CC3)cc2)CC1 [Example 8, (1R,2R)-2-(1-(5-Chloropyridin-3-yl)-4-(4-(1,1-dioxidothiomorpholino)phenyl)-1H-pyrazol-3-yl)-N-(1-cyanocyclopropyl)cyclohexanecarboxamide] | 0.75 | 215
18 | N#CC1(NC(=O)[C@@H]2CCCC[C@H]2c2nn(-c3ccc(F)cc3)cc2-c2ccc(C(=O)N3CCNC(=O)C3)cc2)CC1 [Example 89, (1R,2R)-N-(1-cyanocyclopropyl)-2-(1-(4-fluorophenyl)-4-(4-(3-oxopiperazine-1-carbonyl)phenyl)-1H-pyrazol-3-yl)cyclohexanecarboxamide] | 9.37 | 989
19 | CN=S1(=O)CCN(c2ccc(-c3c([C@@H]4CCCC[C@H]4C(=O)N[C@H](C#N)C(C)C)nn(-c4ncccc4F)c3C)cc2)CC1 [Example 48, (1R,2R)-N-((S)-1-cyano-2-methylpropyl)-2-(1-(3-fluoropyridin-2-yl)-5-methyl-4-(4-(1-(methylimino)-1-oxidothiomorpholino)phenyl)-1H-pyrazol-3-yl)cyclohexanecarboxamide] | 19.2 | 7350
20 | CS(=O)(=O)c1ccc(-c2cn(-c3ccccc3)nc2C2CCC(F)(F)CC2C(=O)NCC#N)cc1 (racemic) [Example 76, (1R,2R and 1S,2S)-N-(cyanomethyl)-5,5-difluoro-2-(4-(4-(methylsulfonyl)phenyl)-1-phenyl-1H-pyrazol-3-yl)cyclohexanecarboxamide] | 0.8 | 11
21 | CC(=O)N1CC(c2ccc(-c3cn(-c4ccc(F)cc4)nc3[C@@H]3CCCC[C@H]3C(=O)NC3(C#N)CC3)cc2)C1 [Example 134, (1R,2R)-2-(4-(4-(1-acetylazetidin-3-yl)phenyl)-1-(4-fluorophenyl)-1H-pyrazol-3-yl)-N-(1-cyanocyclopropyl)cyclohex-anecarboxamide] | 1.57 | 210
22 | CC(C)[C@@H](C#N)NC(=O)[C@@H]1CCCC[C@H]1c1nn(-c2ccc(F)cc2)c(CO)c1-c1ccc(N2CCS(=O)(=O)CC2)cc1 [Example 65, (1R,2R)-N-((S)-1-cyano-2-methylpropyl)-2-(4-(4-(1,1-dioxidothiomorpholino)phen-yl)-1-(4-fluorophenyl)-5-(hydroxymethyl)-1H-pyrazol-3-yl)cyclohexanecarboxamide] | 11 | 868
